Test results as given in patent US6696495B2, “Treatment of disorders secondary to organic impairments” (Snowden Pharmaceuticals, LLC, priority 1998, dated 2004).
Read-outs that look alike come from different tables or passages of the source.

Columns and labels:
Gulf War Syndrome (GWS) = assay: Case history 19; type: in vivo, human; settings: 10 mg. b.i.d. of sibutramine; veteran
[1] = tested on: Asocial Behavior, Violence, and Hyposexuality; assay: Case history 10, Sibutramine Patient No. 54; type: in vivo, human
[2] = tested on: Reflex Sympathetic Dystrophy Syndrome (RSDS); Complex Regional Pain Syndrome (CRPS); assay: Case history 27; type: in vivo, human
[3] = tested on: Fibromyalgia—Chronic Fatigue Syndrome
[4] = tested on: Violence and Self-Laceration; assay: Case history 2, Sibutramine Patient No. 3; type: in vivo, human
Method: 2. Violence and Self-Laceration (Problem No. 1) Sibutramine Patient No. 3
They were started on sibutramine 10 mg orally every morning for their violence, self-abuse and obesity.

Sexual Function and ADD = assay: Case history 4, Sibutramine Patient No. 109; type: in vivo, human
[5] = tested on: Chronic Psychosis and Tardive Dyskinesia; assay: Case history 28; type: in vivo, human
Method: 28. Chronic Psychosis and Tardive Dyskinesia
They were committed to a Psychiatric Hospital multiple times and was treated with multiple neuroleptic medication from which they have developed Tardive Dyskinesia. They were administered 15 mg sibutramine a day which had immediate effects, in less then one hour the improvement was noticed by them and others. […] They continue to take sibutramine along with 15 mg of Zyprexa daily.

[6] = tested on: Severe ADHD Refractory to All Other Medications With Executive (Frontal Lobe) Problems
Text: A person was seen first for a life-long history of severe hyperactivity, distractibility, disorganization, poor memory of studied material, very poor concentration, and school failure despite a high IQ. There was no known history of head injury, other neurological disease, nor metabolic disease.

[7] = tested on: Institutionalization Syndrome; assay: Case history 25; type: in vivo, human
Text: 25. The Symptoms Due to Institutionalization Syndrome, Also Known As Concentration Camp Syndrome or Survivors Syndrome.
A person was diagnosed with Institutionalization Syndrome and had been in and out of hospitals for 25 years.

[8] = tested on: Severe Atypical Psychosis; assay: Case history 1, Sibutramine Patient No. 97; type: in vivo, human; settings: sibutramine 10 mg orally three times a day, added to carbamazepine, quetiapine, valproic acid; person
[9] = tested on: frontal lobe executive function, ADHD, and hyposexuality
[10] = tested on: Non-Tourette's tics, obsessive-compulsive rituals, and attention deficit hyperactive disorder (ADHD)
Huntington's Disease = assay: Case history 12, Sibutramine Patient No. 113; type: in vivo, human
[11] = tested on: Tourette's Disease Tics, Violence, and ADHD; assay: Case history 8, Sibutramine Patient No. 47; type: in vivo, human
Retinitis Pigmentosa = assay: Case history 13; type: in vivo, human
Text: person one presented with a 40 year history of gradual loss of vision due to RP. For the past 10 years they had been almost completely blind except for well-lit large shapes visible to their right eye. They have been prone to falls with head injury and had developed a focal seizure disorder which had been also associated with “visions”, stammering, and confusion. Multiple treatments had been tried unsuccessfully by other physicians, and they were then referred to me.
One problem was that the effects faded after 4-6 hours and required multiple dosing. […] sleep was aided as well because of the relief from the frightening visual apparitions. The relief from stammering was also unexpected.

[12] = tested on: Severe Post-Traumatic Stress Reaction
Method: Finally, this patient was taken off of fluoxetine 20 mg when sibutramine treatment was initiated.

[13] = tested on: Torticollis, Lingual Dystonia and Dyskinesia; assay: Case history 23; type: in vivo, human
[14] = sibutramine 15 mg three times a day

CC(C)CC(N(C)C)C1(c2ccc(Cl)cc2)CCC1.Cl (stereo not shown) [sibutramine, N,N-dimethyl-1-[1-(4-chlorophenyl)cyclobutyl]-3-methylbutylamine hydrochloride]
pain, cognitive problems, confusion (Gulf War Syndrome (GWS)): rapidly repaired their pain, cognitive problems, and confusion
speech, compulsive acts, social activity, sexual interest ([1]; sibutramine 5 mg tid): a decrease in repetitive speech, hissing, and compulsive acts, an increase in social activity and sexual interest, and increased speech generally
violence / manageability ([1]; sibutramine 10 mg daily, person): again became calm and manageable
time to pain relief ([2]; 15 mg capsule of sibutramine, child): ≤ 45 min
toe and function ([2]; 15 mg once a day, within 2 weeks): their toe became normal, and normal function was regained
pain and symptoms after restart ([2]; back on 15 mg once a day): their pain level decreased significantly within one hour and their symptoms disappeared
foot pain ([2]; first 15 mg capsule): dramatically better, completely relieved of pain
symptoms off sibutramine ([2]; taken off for one day): all the previous symptoms reappeared
sleep ([3]; first night after sibutramine): difficulty in getting to sleep that first night
alertness and concentration ([3]; sibutramine 5 mg tid p.o.): became alert and able to concentrate
fatigue and energy ([3]; sibutramine 5 mg tid p.o.): their fatigue diminished and their energy increased substantially
pain points ([3]; sibutramine 5 mg tid p.o.): their pain points were still tender but that the burning sensation at these points had abated within 4 days
time to response after the first 5 mg capsule ([3]; sibutramine 5 mg tid p.o. Person): ≤ 2 h
energy, seizures, violence and self-abuse ([4]; sibutramine 10 mg orally every): gained new energy, had fewer seizures, and was no longer violent or self-abusive
time to response ([4]; sibutramine 10 mg orally every morning): less than a week
wear-off of effects after administration ([4]; single morning dose 10 mg): 5 to 6 h
concentration and fatigue problems (Sexual Function and ADD; sibutramine 5 mg three times daily with continuing valproic acid): no longer had the concentration and fatigue problems
sexual interest and ability (Sexual Function and ADD; sibutramine 5 mg three times daily, person): immediately noted a new-found interest and ability to engage in sex
emotion and paranoia ([5]; 15 mg sibutramine a day, with Zyprexa): emotional for the first time and diminishing their paranoia greatly
time to noticed improvement ([5]; 15 mg sibutramine a day, person): one hour
Tardive Dyskinesia ([5]; after the first week): his Tardive Dyskinesia improved
maximum duration of a single dose effect ([6]; rapid catabolism): 4 to 5 h
ability to plan and execute (executive function) [6, 14]: marked improvement in their ability to form appropriate, organized plans and execute them promptly without procrastination or distraction
complaints [6, 14]: being “too calm” with a loss of the exciting high-risk behavior of the past
calm, concentration, retention of information ([6]; sibutramine 15 mg three times a day, person): the first medication to calm them and permit careful, quiet concentration and retention of information
course since treatment began ([7]; four months): continued improvement of their symptoms
symptoms of Institutionalization Syndrome ([7]; sibutramine 15 mg once a day): relieved their symptoms within a few minutes
hallucinations, confusion, paranoia, and anxiety [8]: marked decrease in hallucinations, confusion, paranoia, and anxiety
sexual drive after radical prostatectomy ([9]; sibutramine): this problem of sexual drive was repaired
efficacy after dose decrease ([9]; sibutramine 5 mg bid, pemoline and methylphenidate discontinued): without a loss of efficacy
side effects ([9]; sibutramine 10 mg. bid): dry mouth and some insomnia
concentration and ability to plan ([9]; sibutramine 10 mg. bid p.o. Person): immediate repair of concentration, and particularly their ability to plan and carry out these plans effectively
tics and OCD symptoms ([10]; sibutramine 5 mg tid, child): stopped both the tics and the OCD symptoms, but only for a few hours
effect of missing a single dose ([10]; sibutramine 10 mg tid): the vocal and motor tics return immediately
sleep and appetite ([10]; sibutramine 10 mg tid): Sleep and appetite were not affected
tics and OCD symptoms ([10]; sibutramine 10 mg tid): free of symptoms throughout the day
concentration at school ([10]; sibutramine 10 mg tid, versus dextroamphetamine, methylphenidate, pemoline): better than with any of the analeptics
ataxic gait with continued treatment (Huntington's Disease; gradually, continued sibutramine): improvements in their ataxic gait
time to relief after the first capsule (Huntington's Disease; sibutramine 5 mg): ≤ 20 min
cognitive, emotional, behavioral problems and ataxic gait (Huntington's Disease; sibutramine 5 mg three times a day, first capsule, person): complete relief of the cognitive, emotional, and behavioral problems but not with the ataxic gait
tics, aggressive outbursts, concentration ([11]; human, in vivo): rapidly relieved their tics, their aggressive outbursts, and helped their concentration
wear-off of effects ([11]; sibutramine 10 mg every morning): wore off quickly after noon with a rapid return of all symptoms
tics, violence, concentration problems ([11]; sibutramine 10 mg three times daily): loss of verbal and motor tics, violence, and concentration problems
time after which effects faded (Retinitis Pigmentosa; sibutramine 5 mgs.): 4 to 6 h
visual apparitions (“visions”) (Retinitis Pigmentosa; sibutramine 5 mgs. t.i.d.): lost the “visions” which had upset them so
organization, alertness, stammering, vision (Retinitis Pigmentosa; sibutramine 5 mgs. t.i.d. Person one): better organization and alertness, decreased stammering, but also better vision by visual testing
depression ([12]; human, in vivo): became severely depressed despite the relief from PTSD
PTSD symptoms and sedation at lower dosage ([12]; less than 1 mg once a day): provided relief again from their PTSD symptoms but without the sedation
side effects ([12]; one-half of the smallest capsule (5 mg), deficiency in P-450 cytochrome system enzymes): produced drowsiness, sugar craving, and weight gain
PTSD reaction to thunder ([12]; sibutramine 10 mg in the morning, person): completely oblivious of their former psychotic fear of thunder
symptoms after sibutramine was stopped ([12]; stopped after one and a half months): rapid return of the fear of thunder, sound and light sensitivity, exaggerated startle reflex, headaches, and nightmares of life and death situations
symptoms with continued dosing ([13]; 15 mg sibutramine every six hours): prolonged and sustained relief of their symptoms
pain ([13]; sibutramine 15): their pain subsided
tremors, mouth opening, arm movement ([13]; sibutramine 15): their tremors considerably slowed, their mouth was no. longer pulling open as dramatically and their arm was not moving noticeably
time to response ([13]; sibutramine 15, person): ≤ 45 min
